This passage reports Kd results from paper PMC9163592 (The Journal of Biological Chemistry, 2022).

The target in assay [1] is IsdH linker-NEAT3 (Staphylococcus aureus, UniProt Q931P4). Description: biochemical.
Assay [2] deals with IsdH NEAT3 (Staphylococcus aureus, UniProt Q931P4). Description: biochemical.

The structures appear in SMILES notation.

IsdH NEAT3, sequence (Q931P4 539-664): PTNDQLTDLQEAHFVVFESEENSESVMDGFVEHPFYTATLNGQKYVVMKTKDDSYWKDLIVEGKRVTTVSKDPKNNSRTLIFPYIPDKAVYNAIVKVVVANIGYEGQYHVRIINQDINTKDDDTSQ
IsdH linker-NEAT3, sequence (Q931P4 486-664): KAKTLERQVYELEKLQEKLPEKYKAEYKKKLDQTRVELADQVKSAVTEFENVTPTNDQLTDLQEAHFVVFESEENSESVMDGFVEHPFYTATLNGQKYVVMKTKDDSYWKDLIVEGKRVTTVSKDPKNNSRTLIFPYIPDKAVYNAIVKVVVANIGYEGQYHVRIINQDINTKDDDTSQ

A word on the Kd: it is a measure of binding affinity in units of concentration. Regarding `C=CC1=C(C)C2=Cc3c(C=C)c(C)c4[n]3[Fe]([Cl])[n]3c(c(C)c(CCC(=O)O)c3=CC3=NC(=C4)C(C)=C3CCC(=O)O)=CC1=N2` [heme], the Kd was 0.51 ± 0.16 nM in assay [1] and 1.05 ± 0.15 nM in assay [2].
